Values quoted from earlier work, collected in patent US20210029988A1, “PEST REPELLENT COMPOSITION” (JGC CATALYSTS AND CHEMICALS LTD., priority 2018, published 2021).

Key:
[1] = within 6 hours

CCN(CC)C(=O)c1cccc(C)c1 [DEET, N,N-diethyl-m-toluamide]
Transdermally absorbed proportion of DEET applied on the skin [1]: about 50%
Vapor pressure at 20°C (VP): 0.22 Pa
